In US11213522B2, “Autoimmune-induced glutamatergic receptor dysfunction methods and treatments” (SARAH HERZOG MEMORIAL HOSPITAL EZRAT NASHIM ASSOCIATION, priority 2013, dated 2022):

How the values were obtained:
Format in all cases: in vivo, human
[1] = tested on: patient positive for anti-NR1 NMDAR antibodies; assay: Simpson Angus Scale for Extrapyramidal Symptoms (SAS), D-serine clinical trial; conditions: week 0 score 5
Text: Out of the seventeen patients that entered the study, the serum of one patient was strongly positive at both serum sample dilutions for the presence of both IgG and IgM classes of anti-NR1 NMDAR antibodies. The patient was a single person having a diagnosis of schizophrenia according to DSM-IV-R criteria (American Psychiatric Association, 2000 Diagnostic and Statistical Manual of Mental Disorders-(DSM-IV-TR), 4th edition. American Psychiatric Association Washington D.C. (Text Revision)). There was no history of mental disorder in the patient's family. The patient had completed post-high school studies and had worked as a secretary. After a period of continuous headaches, for which no organic basis had been found, they had abruptly developed an acute psychosis characterized by grandiose and paranoid delusions, mystical thinking, […] affect and agitation, They had been hospitalized in a psychiatric hospital and underwent treatment with antipsychotic drugs and electroconvulsive therapy with only partial response. The patient had never returned to their previous functional and except for short attempts at living in the community, has been hospitalized ever since. They have been refractory to treatment with various classes of antipsychotic drugs, was not diagnosed with any medical or neurological disorder and was maintained on sulpiride 50 mg/day, citalopram 40 mg/day, lorazepam 1 mg/day and promethazine 50 mg/day. […] DSR is a naturally occurring amino acid that acts in vivo as an obligatory co-agonist at the glycine modulatory site associated with NMDAR. […] Both acute and chronic administration of 1-2 g DSR in humans is known to result in ≥100 times increases in DSR serum levels (Kantrowitz et al., 2010, Schizophr Res121:125-30; Heresco-Levy et al., 2005, Biol Psychiatry 57:577-85). […] In conjunction with UKU ratings, patient's vital signs and body weight were monitored throughout the study.

[2] = tested on: patient positive for anti-NR1 NMDAR antibodies; assay: Flanker Task; conditions: post-6 weeks D-serine
Experimental: (§1) The trial consisted of two periods, starting with a 2 week lead-in/stabilization period (−2-0) following which the patient was entered in the second period of the study which consisted of a 6 week (0-6), open-label, fixed dose therapy phase. During this phase, the patient received adjuvant treatment with DSR, whose dose was increased from 1500 mg/day (week 1) to 2000 mg/day (weeks 2 and 3) to 3000 mg/day (weeks 4 and 5) and to 4000 mg/day (week 6). The doses of the ongoing medication received by the patient remained fixed throughout the study and no changes in medication were performed.
(§2) In addition, cognitive performance was assessed pre- and post DSR treatment. For this purpose, a 1.5-hour neurocognitive assessment battery (nine computerized and two paper/pencil tests) was employed that measures accuracy and speed of performance in major cognition domains, including attention/vigilance, planning, short-term and working memory, decision making, abstraction and mental flexibility. All the tests were formatted like games and puzzles, and were administered to the patient as part of the comprehensive neuropsychiatric assessment at baseline and the end of study. The neurocognitive battery included the 1) Test of Attentional Vigilance (TOAV, (Forbes, 1998, Journal of Clinical Psychology 54:461-476; Greenberg, 1993, Journal of Child Psychology and Psychiatry 34: 1019-30)); 2) Tower of London (TOL, (Shailice, 1982, Specific impairments of planning Philosophical Transactions of the Royal Society of London. Series B, Biological Sciences 298:199-209); 3-4) Digit Span Test (DST, forward and backward (Wechsler 1997, The Wechsler adult intelligence scale-III. San Antonio, Tex.: Psychological Corporation; Kaplan 1991, The WAIS-R as a neuropsychological instrument. San Antonio, Tex.: The Psychological Corporation; Lamar et al., 2007, Neuropsychologia 45:245-54; Lamar et al., 2008, Neuropsychologia 46:2597-601)); 5-6) Corsi Block Tapping Test (CBTT, forward and backward, (Corsi, 1972, Dissertation Abstracts International. 34:819B; Kessels et al., 2000, Applied Neuropsychology 7:252-58, Kessels et al., 2008, Assessment 15:426-34)); 7) Flanker Task (Erikson and Eriksen, 1974; Perception & Psychophysics 25: 249-63, Stins et. al., 2007, Advances in Cognitive Psychology 3:389-96); 8) Time Wall (Perez et al., 1987, Unified Tri-services cognitive performance assessment battery: review and methodology; DTIC Document ADA181697, http://www.dtic.mil/dtic/tr/fulltext/u2/a81697.pdf); and Wisconsin Card Sort Test (WCST, (Berg, 1948, J Gen Psychol39:15-22; Nelson, 1976, Cortex 12:313-24)). In addition to the nine computerized tests, the patient completed two paper/pencil tests: 10-11) part A and part B of the Trail-Making-Test (TMT, (Reitan, 1958, Percept. Mot Skills 8:271-76; Reitan, 1992 Trail Making Test: Manual for administration and scoring. Tucson, Ariz.: Reitan Neuropsychology Laboratory)) according to the guidelines presented by Spreen and Strauss (1998)). All neurocognitive testing was completed in a private and quiet setting to limit any distractions.

[3] = tested on: patient positive for anti-NR1 NMDAR antibodies; assay: Corsi Block Tapping Test (CBTT), forward and backward; conditions: post-6 weeks D-serine
Experimental: as §1
as §2, with “In addition to the nine computerized tests, the patient completed two paper/pencil tests: 10-11) part A and part B of the Trail-Making-Test (TMT, (Reitan, 1958, Percept. Mot Skills 8:271-76; Reitan, 1992 Trail Making Test: Manual for administration and scoring. Tucson, Ariz.: Reitan Neuropsychology Laboratory)) according to the guidelines presented by Spreen and Strauss (1998)). All neurocognitive testing was completed in a private and quiet setting to limit any distractions.” left out

N[C@H](CO)C(=O)O [D-serine]
SAS ([1]; study week 2): 4
SAS ([1]; study week 4): 4
SAS ([1]; study week 6): 3
Flanker Task Incongruous accuracy, mean ± SD ([2]; pre-treatment 0.450 ± 0.499): 0.575 ± 0.494 proportion correct
Flanker Task Congruous accuracy, mean ± SD ([2]; pre-treatment 0.475 ± 0.499): 0.65 ± 0.476 proportion correct
Flanker Task Neutral accuracy, mean ± SD ([2]; pre-treatment 0.475 ± 0.499): 0.65 ± 0.476 proportion correct
Flanker Task Congruous response time, mean ± SD ([2]; pre-treatment 725.03 ± 130.03): 651.93 ± 130.16 milliseconds
Flanker Task Neutral response time, mean ± SD ([2]; pre-treatment 732.18 ± 127.96): 688.23 ± 99.19 milliseconds
Flanker Task Incongruous response time, mean ± SD ([2]; pre-treatment 737.38 ± 131.34): 713.3 ± 102.14 milliseconds
CBTT Backward Span Length (2-9) ([3]; pre-treatment 4): 3.5
CBTT Forward Span Length (2-9) ([3]; pre-treatment 5): 4
CBTT Backward Number Correct (0-16) ([3]; pre-treatment 6): 5
CBTT Forward Number Correct (0-16) ([3]; pre-treatment 8): 6
